The test system of test [1] is FaDu (head and neck squamous carcinoma cell line). Description: MTT cell viability assay, FaDu. The format is cell-based, human. The conditions noted are these: for IC50: Homo sapiens, FaDu, 48 h, MTT, read-out: Antiproliferative Activity IC50 ± SEM, FaDu; for SI: selectivity index: SI = IC50 (MCF 10A)/IC50 (FaDu). A general note: Formazan colour is commonly taken as a measure of viable cells.

Test [2] has as its system FaDu cells. Description: Flow cytometric analysis of apoptosis by annexin V-FITC/PI staining. In kind it is cell-based, human. As to conditions: 24 h, control 8.23%. How it is done: Apoptosis in FaDu cells was evaluated by an annexin V-FITC/PI apoptosis detection kit (Beyotime Institute of Biotechnology, Shanghai, China). Briefly, FaDu cells were treated with various concentrations of compound 8e (2, 5, 10 nM) or DMSO as vehicle control for 24 h at 37 °C; then, the cells were washed twice with cold 1× PBS and centrifuged at 1000 rpm for 5 min. The harvested cells were resuspended gently in 400 µL binding buffer, containing 5 µL annexin V-FITC and 10 µL PI. After incubating for 15 min in the dark at room temperature, the cells were analyzed with flow cytometry (CyFlow® Cube 6, Sysmex). Data were shown as pseudo color graphs and analyzed using FlowJo Software (Tree Star Inc, Ashland, OR).
(In general: In flow cytometry, cells or beads pass a laser one at a time.)

The test system of test [3] is FaDu cells. The test is described as follows: Cell cycle analysis by PI staining. In kind it is cell-based, human. As to conditions: 24 h; for percentage of cells in the S phase: control 28.1%; for population of the G0/G1 phase: control 51.9%. Here is the method: The cell cycle analysis was carried out by a cell cycle and apoptosis analysis kit with a propidium iodide (PI) staining method (Beyotime Institute of Biotechnology, Shanghai, China). Briefly, FaDu cells were incubated with the above-mentioned doses of compound 8e for 24 h; all samples were collected, washed once with cold 1× PBS, and fixed by 70% ice-cold ethanol at 4 °C for 12 h. Then, the fixed cells were washed once with cold 1× PBS and stained with 500 µL 1× PI dye solution (containing 10 µL RNase A) at 37 °C for 30 min in the dark. The red fluorescence was detected using a flow cytometer (CyFlow® Cube 6, Sysmex). The data were analyzed using FlowJo Software (Tree Star Inc, Ashland, OR, USA).

Test [4] relates to FaDu cells. Description: Colony formation assay. The format is cell-based. As to conditions: Homo sapiens, 240 h, 6 nM, 10 days, read-out: colony inhibition rate. Here is the method: FaDu cells were seeded in a 6-well plate with 500 cells per well and incubated for 24 h. Then, the cells were treated with compound 8e at various final concentrations of 0, 0.75, 1.50, 3 nM. Following treatment for 10 days, the cells were washed with PBS twice and fixed with 4% paraformaldehyde for 10 min at room temperature. Then, the cell colonies were visualized by staining with 0.1% crystal violet for 10 min. The image was photographed with Handy camera, and the numbers of cell colonies were analyzed using the open Image J software (Developed by National Institutes of Health). A group of >50 cells was defined as one colony. Triplicate wells were set up for each concentration.

The subject of test [5] is HeLa (cervical cancer cell line). Description: MTT cell viability assay, HeLa. The format is cell-based. The conditions noted are these: Homo sapiens, 48 h, read-out: Antiproliferative Activity IC50 ± SEM, HeLa.
For test [6], the system named is HeLa, Hep G2, MCF-7, FaDu, A549, MCF 10A. Description: MTT cell viability assay, summary over the cell line panel. The conditions noted are these: 48 h, span over the cell lines, read-out: IC50 range over tested cell lines. The format is cell-based, human. Here is the method: The tested cells were obtained from Shanghai Institute of Biochemistry and Cell Biology of the Chinese Academy of Sciences (Shanghai, China). HeLa and Hep G2 cell lines were cultured in Dulbecco’s modified Eagle’s medium (DMEM; gibco, Life Technologies, Carlsbad, CA, USA) supplemented with 10% fetal bovine serum (FBS; Biological Industries), 100 U/mL penicillin-streptomycin (PS; gibco, Life Technologies, Carlsbad, CA, USA). MCF-7 and A549 cell lines were maintained in RPMI-1640 media (gibco, Life Technologies, Carlsbad, CA, USA) supplemented with 10% FBS and 100 U/mL PS. FaDu cell lines were cultured in minimum essential medium (MEM; Gibco, Life Technologies, Carlsbad, CA, USA) supplemented with 10% FBS and 100 U/mL PS. MCF 10A cell lines were maintained in Mammary MEGM kit (Lonza/Clonetics) supplemented with 100 ng/mL cholera toxin (Sigma, Shanghai, China). Cell lines were grown at 37 °C in a humidified atmosphere of 5% CO2.
The growth-inhibitory effects against HeLa, Hep G2, MCF-7, FaDu, and A549 cancer cells and normal cell lines MCF 10A were determined by MTT assay. […] Cells were seeded in 96 well plates at a density of 1 × 10^4 cells per well and incubated for 24 h at 37 °C in a humidified atmosphere of 5% CO2. The cells were then incubated with various concentrations of drugs for 48 h in a 5% CO2 incubator at 37 °C. After treatment with 1 mg/mL 3-(4,5-dimethylthiazol-2-yl)-2,5-diphenyltetrazolium bromide (MTT) solution for 4 h, the formazan crystals were dissolved in 100 µL DMSO in each well. Plates were read on a microplate reader (Thermo Varioskan Flash 3001) at 490 nm. The experiment was performed in triplicate. The inhibitory concentration at 50% (IC50) was calculated based on concentration-inhibition relationships via regression using SPSS software (Version 17.0).

The subject of test [7] is A549 (epithelial cancer cell line). Description: MTT cell viability assay, A549. In kind it is cell-based. As to conditions: Homo sapiens, 48 h, read-out: Antiproliferative Activity IC50 ± SEM, A549.
The subject of test [8] is MCF-7 (breast cancer cell line). The test is described as follows: MTT cell viability assay, MCF-7. In kind it is cell-based. The conditions noted are these: Homo sapiens, MCF7, 48 h, read-out: Antiproliferative Activity IC50 ± SEM, MCF-7.
The subject of test [9] is MCF 10A (normal mammary epithelial cell). Description: MTT cell viability assay, MCF 10A. The format is cell-based. As to conditions: Homo sapiens, 48 h, normal cells, read-out: Antiproliferative Activity IC50 ± SEM, MCF 10A.
Test [10] concerns Hep G2 (hepatocarcinoma cell line). The test is described as follows: MTT cell viability assay, Hep G2. In kind it is cell-based. As to conditions: Homo sapiens, HepG2, 48 h, read-out: Antiproliferative Activity IC50 ± SEM, Hep G2.

Molecules are shown by their SMILES. Where two headings read alike, the source gives them in different places. Bounds are passed on as bounds.

As for `Cc1nc(C)c(C(=O)NCCCCCCCCCCNC(=O)c2nc(C)c(C)nc2C)nc1C` [Compound 8e, N,N′-(Decane-1,10-Diyl)Bis(3,5,6-Trimethylpyrazine-2-Carboxamide)], the IC50 (usually the midpoint of a concentration-inhibition curve) was 0.00136 ± 0.00035 µM in test [1]; 1.42 ± 0.71 µM in test [5]; 0.00136 to 1.42 µM in test [6]; 1.05 ± 0.05 µM in test [7]; 0.037 ± 0.001 µM in [8]; 0.047 ± 0.008 µM in test [9]. Moreover, the IC50 in test [10] was > 20 µM. Also, the “SI: selectivity index” value in test [1] is reported as 34.56. Moreover, the “apoptotic cells (early and late apoptosis ratios)” value in the test on FaDu cells [2] (2 nM) worked out at 34.2%; with FaDu cells [2] (5 nM) it was 57.7%; with FaDu cells [2] (10 nM), 79.5%. The “percentage of cells in the S phase” value stood at 33.7% in the test with FaDu cells [3] (2 nM), 44.3% in the test with FaDu cells [3] (5 nM) and 54.7% with FaDu cells [3] (10 nM). Besides, the “population of the G0/G1 phase” value with FaDu cells [3] (2 nM) is reported as 41.8%; in the test on FaDu cells [3] (5 nM), 44.2%; with FaDu cells [3] (10 nM), 32.4%. For the same molecule, the inhibition (in general, the share of the control response that was lost under treatment) at 0.006 µM in the test on FaDu cells [4] is ~85.4%.

In the case of `Cc1nc(C)c(CN(CCCCCCCCCCN(Cc2nc(C)c(C)nc2C)Cc2nc(C)c(C)nc2C)Cc2nc(C)c(C)nc2C)nc1C` [Compound 6f, N^1,N^1,N^10,N^10-Tetrakis((3,5,6-Trimethylpyrazin-2-yl)Methyl)Decane-1,10-Diamine], the IC50 was 10.9 ± 0.12 µM in [1]; 10.2 ± 0.55 µM in test [5]; 6.57 to 20.8 µM in test [6] (Homo sapiens); 20.1 ± 0.41 µM in test [7]; 20.83 ± 0.14 µM in test [8]; 13 ± 0.55 µM in test [9]. In [10], the half-maximal inhibitory concentration (IC50) stood at 10.7 ± 0.22 µM. Besides, in test [1], the “SI: selectivity index” value is recorded as 1.19.
